{"source": "patent US6242448A", "about": "“Trisubstituted-oxazole derivatives as serotonin ligands” (American Home Products Corporation, priority 1999, dated 2001)", "biological_target": "T1, human 5HT1A receptor (Homo sapiens, UniProt P08908)", "T1 construct": "expressed in transfected cells; host or cells: CHO cells (stably transfected)", "T1 sequence (P08908 1-422)": "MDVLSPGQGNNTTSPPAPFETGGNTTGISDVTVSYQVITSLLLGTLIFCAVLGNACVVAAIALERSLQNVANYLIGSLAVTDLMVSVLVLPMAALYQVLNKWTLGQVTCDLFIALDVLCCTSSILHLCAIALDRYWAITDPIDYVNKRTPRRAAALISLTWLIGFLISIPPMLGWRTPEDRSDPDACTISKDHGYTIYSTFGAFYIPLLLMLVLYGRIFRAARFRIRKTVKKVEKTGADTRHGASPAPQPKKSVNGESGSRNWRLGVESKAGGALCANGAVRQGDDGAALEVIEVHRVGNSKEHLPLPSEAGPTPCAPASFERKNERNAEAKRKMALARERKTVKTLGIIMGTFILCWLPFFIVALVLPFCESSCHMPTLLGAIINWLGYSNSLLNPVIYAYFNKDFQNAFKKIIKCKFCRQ", "test": "5-HT1A Receptor Binding Assay (displacement of [3H]8-OH-DPAT in CHO cells stably transfected with human 5HT1A receptor)", "details": "displacement of 8-OH-DPAT, 1.5 nM ligand, 30 minute incubation at room temperature", "procedure": "High affinity for the serotonin 5--HT1A receptor was established by testing the claimed compound's ability to displace [^3 ]8-OH-DPAT binding in CHO cells stably transfected with human 5HT1A receptor. Stably transfected CHO cells are grown in DMEM containing 10% heat inactivated FBS and non-essential amino acids. Cells are scraped off the plate, transferred to centrifuge tubes, and washed twice by centrifugation (2000 rpm for 10 min., 4° C.) in buffer (50 mM Tris pH 7.5). The resulting pellets are aliquoted and placed at -80° C. On the day of assay, the cells are thawed on ice and resuspended in buffer. The binding assay is performed in a 96 well microtiter plate in a total volume of 250 μL. Non-specific binding is determined in the presence of […] 5HT, final ligand concentration is 1.5 nM. Following a 30 minute incubation at room temperature, the reaction is terminated by the addition of ice cold buffer and rapid filtration through a GF/B filter presoaked for 30 minutes in 0.5% PEI. Compounds are initially tested in a single point assay to determine percent inhibition at 1, 0.1, and 0.01 mM, and Ki values are determined for the active compounds.", "note": "pKi: −log10 of the molar value."}
{"smiles": "c1ccc(Cc2nc(C3CCCCC3)oc2CN2CCN(c3cccc4c3OCCO4)CC2)cc1", "note": "[Example 9, 1-(4-Benzyl-2-cyclohexyl-oxazol-5-ylmethyl)-4(2,3-dihydro-benzo[1,4]dioxin-5-yl)-piperazine]", "values": [{"measurement": "pKi", "value": 8.33}]}
{"smiles": "c1ccc(Cc2nc(C3CCCCC3)oc2CN2CCN(c3cccc4[nH]ccc34)CC2)cc1", "note": "[Example 10, 4-[4-(4-Benzyl-2-cyclohexyl-oxazol-5-ylmethyl)-piperazin-1-yl]-1H-indole]", "values": [{"measurement": "pKi", "value": 8.15}]}
{"smiles": "COc1ccccc1N1CCN(Cc2oc(C3CCCCC3)nc2Cc2ccccc2)CC1", "note": "[Example 11, 1-(4Benzyl-2-cyclohexyl-oxazol-5-ylmethyl)-4-(2-methoxyphenyl)-piperazine]", "values": [{"measurement": "pKi", "value": 9.06}]}
